In article PMC11436758, “Computer-aided drug design to generate a unique antibiotic family” (Nature Communications, 2024):
Converted amounts (≈) assume the structure as drawn.

Experiments:
Type in all cases: cell-based
S. aureus (MRSA) = assay: MIC, clinical and laboratory strains
Method: (§1) The medium employed for the assay was Mueller Hinton II Broth (MHB II; Becton-Dickinson, Sparks, MD, USA). Agar plates used for the organisms were trypticase soy agar plus 5% sheep blood (BD; Sparks, MD, USA). MIC assay plates were prepared using the CLSI broth microdilution procedure. Automated liquid handlers (Multidrop 384, Biomek 2000 and Biomek FX) were used to conduct serial dilutions and liquid transfers. A standardized inoculum of each organism was prepared per CLSI methods. Suspensions were prepared to equal a 0.5 McFarland standard, followed by a 1:20 dilution in test media. The inocula were dispensed into sterile reservoirs divided by length (Beckman Colter) and the Biomek 2000 was used to inoculate the plates. Daughter plates were placed on the Biomek 2000 work surface in reverse orientation so that inoculation took place from low to high drug concentration. The Biomek 2000 delivered 10 μL of the diluted suspension into each well. These inoculations yielded a final cell concentration in the daughter plates of ~5 × 10^5 colony-forming units/mL in each well. The wells of the daughter plates ultimately contained 185 μL of broth, 5 μL of drug solution, and 10 μL of bacterial inoculum. Plates were covered with a sterile lid on the top plate, placed in plastic bags, and incubated at 35 °C for ~18 h. The microplates were viewed from the bottom using a plate viewer and the MIC was read. The MIC was recorded as the lowest concentration of drug that inhibited visible growth of the organism.

S. aureus (MSSA) = assay: MIC, clinical and laboratory strains
Method: as §1

S. aureus (VISA) = assay: MIC, clinical and laboratory strains
Method: as §1

[1] = test system: 102 ATCC strains and clinical isolates of Staphylococcus, Streptomyces, and Enterococcus; assay: MIC panel summary over all strains; conditions: of 102 strains
Method: We also sought to determine if DNM0547 was bacteriostatic or bactericidal. Time kill experiments were carried out using increasing doses of DNM0547 against two different strains of MRSA.
as §1

CN[C@H](CC(C)C)C(=O)N[C@H]1C(=O)N[C@@H](CC(N)=O)C(=O)N[C@H]2C(=O)N[C@H]3C(=O)N[C@H](C(=O)N[C@H](C(=O)O)c4cc(O)cc(O)c4-c4cc3ccc4O)[C@H](O)c3ccc(c(Cl)c3)Oc3cc2cc(c3O[C@@H]2O[C@H](CO)[C@@H](O)[C@H](O)[C@H]2O[C@H]2C[C@](C)(N)[C@H](O)[C@H](C)O2)Oc2ccc(cc2Cl)[C@H]1O [vancomycin]
MIC (S. aureus (MRSA); S. aureus (MRSA) 2167): 0.5 µg/mL (≈ 0.345 µM)
MIC (S. aureus (MRSA); S. aureus (MRSA) 2168): 0.5 µg/mL (≈ 0.345 µM)
MIC (S. aureus (MRSA); S. aureus (MRSA) 2169): 1 µg/mL (≈ 0.69 µM)
MIC (S. aureus (MRSA); S. aureus (MRSA) 2170): 0.5 µg/mL (≈ 0.345 µM)
MIC (S. aureus (MRSA); S. aureus (MRSA) 2171): 0.5 µg/mL (≈ 0.345 µM)
MIC (S. aureus (MRSA); S. aureus (MRSA) 2293): 0.5 µg/mL (≈ 0.345 µM)
MIC (S. aureus (MRSA); S. aureus (MRSA) 2294): 0.5 µg/mL (≈ 0.345 µM)
MIC (S. aureus (MRSA); S. aureus (MRSA) 2295): 0.5 µg/mL (≈ 0.345 µM)
MIC (S. aureus (MRSA); S. aureus (MRSA) 2296): 0.5 µg/mL (≈ 0.345 µM)
MIC (S. aureus (MRSA); S. aureus (MRSA) 2297): 1 µg/mL (≈ 0.69 µM)
MIC (S. aureus (MRSA); S. aureus (MRSA) 3880): 0.5 µg/mL (≈ 0.345 µM)
MIC (S. aureus (MRSA); S. aureus (MRSA) 5373): 0.5 µg/mL (≈ 0.345 µM)
MIC (S. aureus (MRSA); S. aureus (MRSA) 5666): 0.5 µg/mL (≈ 0.345 µM)
MIC (S. aureus (MRSA); S. aureus (MRSA) 5702): 0.5 µg/mL (≈ 0.345 µM)
MIC (S. aureus (MRSA); S. aureus (MRSA) 5999): 0.5 µg/mL (≈ 0.345 µM)
MIC (S. aureus (MRSA); S. aureus (MRSA) 6165): 1 µg/mL (≈ 0.69 µM)
MIC (S. aureus (MRSA); S. aureus (MRSA) 6169): 0.5 µg/mL (≈ 0.345 µM)
MIC (S. aureus (MRSA); S. aureus (MRSA) 6174): 0.5 µg/mL (≈ 0.345 µM)
MIC (S. aureus (MRSA); S. aureus (MRSA) 6311): 1 µg/mL (≈ 0.69 µM)
MIC (S. aureus (MRSA); S. aureus (MRSA) 6312): 0.5 µg/mL (≈ 0.345 µM)
MIC (S. aureus (MRSA); S. aureus (MRSA) 6313): 0.5 µg/mL (≈ 0.345 µM)
MIC (S. aureus (MRSA); S. aureus (MRSA) 6315): 1 µg/mL (≈ 0.69 µM)
MIC (S. aureus (MRSA); S. aureus (MRSA) 6320): 1 µg/mL (≈ 0.69 µM)
MIC (S. aureus (MRSA); S. aureus (MRSA) 6498): 0.5 µg/mL (≈ 0.345 µM)
MIC (S. aureus (MRSA); S. aureus (MRSA) 6501): 0.5 µg/mL (≈ 0.345 µM)
MIC (S. aureus (MRSA); S. aureus (MRSA) 6505): 0.5 µg/mL (≈ 0.345 µM)
MIC (S. aureus (MRSA); S. aureus (MRSA) 6506): 0.5 µg/mL (≈ 0.345 µM)
MIC (S. aureus (MRSA); S. aureus (MRSA) NRS382/2119): 1 µg/mL (≈ 0.69 µM)
MIC (S. aureus (MRSA); S. aureus (MRSA) NRS383/2120): 0.5 µg/mL (≈ 0.345 µM)
MIC (S. aureus (MRSA); S. aureus (MRSA) NRS384/2011): 0.5 µg/mL (≈ 0.345 µM)
MIC (S. aureus (MSSA); S. aureus (MSSA) 2127): 1 µg/mL (≈ 0.69 µM)
MIC (S. aureus (MSSA); S. aureus (MSSA) 6167): 0.5 µg/mL (≈ 0.345 µM)
MIC (S. aureus (MSSA); S. aureus (MSSA) 6168): 0.5 µg/mL (≈ 0.345 µM)
MIC (S. aureus (MSSA); S. aureus (MSSA) 6170): 0.5 µg/mL (≈ 0.345 µM)
MIC (S. aureus (MSSA); S. aureus (MSSA) 6316): 1 µg/mL (≈ 0.69 µM)
MIC (S. aureus (MSSA); S. aureus (MSSA) 6317): 0.5 µg/mL (≈ 0.345 µM)
MIC (S. aureus (MSSA); S. aureus (MSSA) 6318): 0.5 µg/mL (≈ 0.345 µM)
MIC (S. aureus (MSSA); S. aureus (MSSA) 6499): 0.5 µg/mL (≈ 0.345 µM)
MIC (S. aureus (MSSA); S. aureus (MSSA) 6500): 0.5 µg/mL (≈ 0.345 µM)
MIC (S. aureus (MSSA); S. aureus (MSSA) 6502): 0.5 µg/mL (≈ 0.345 µM)
MIC (S. aureus (VISA); S. aureus (VISA) 1724): 4 µg/mL (≈ 2.76 µM)
MIC (S. aureus (VISA); S. aureus (VISA) 2012): 8 µg/mL (≈ 5.52 µM)
MIC (S. aureus (VISA); S. aureus (VISA) 2013): 4 µg/mL (≈ 2.76 µM)
MIC (S. aureus (VISA); S. aureus (VISA) 2014): 4 µg/mL (≈ 2.76 µM)
MIC (S. aureus (VISA); S. aureus (VISA) 2015): 4 µg/mL (≈ 2.76 µM)
MIC (S. aureus (VISA); S. aureus (VISA) 2016): 4 µg/mL (≈ 2.76 µM)
MIC (S. aureus (VISA); S. aureus (VISA) 2017): 8 µg/mL (≈ 5.52 µM)
MIC (S. aureus (VISA); S. aureus (VISA) 2018): 4 µg/mL (≈ 2.76 µM)
MIC (S. aureus (VISA); S. aureus (VISA) 2019): 4 µg/mL (≈ 2.76 µM)
MIC (S. aureus (VISA); S. aureus (VISA) 2123): 8 µg/mL (≈ 5.52 µM)
MIC (S. aureus (VISA); S. aureus (VISA) NRS1/1723): 8 µg/mL (≈ 5.52 µM)
number of strains tested with MIC not ≤ 2 μg/mL [1]: 37

CC[C@H]1OC(=O)[C@H](C)[C@@H](O[C@H]2C[C@@](C)(OC)[C@@H](O)[C@H](C)O2)[C@H](C)[C@@H](O[C@@H]2O[C@H](C)C[C@H](N(C)C)[C@H]2O)[C@](C)(O)C[C@@H](C)C(=O)[C@H](C)[C@@H](O)[C@]1(C)O [erythromycin]
MIC (S. aureus (MRSA); S. aureus (MRSA) 2167): > 16 µg/mL
MIC (S. aureus (MRSA); S. aureus (MRSA) 2168): > 16 µg/mL
MIC (S. aureus (MRSA); S. aureus (MRSA) 2169): > 16 µg/mL
MIC (S. aureus (MRSA); S. aureus (MRSA) 2170): > 16 µg/mL
MIC (S. aureus (MRSA); S. aureus (MRSA) 2171): > 16 µg/mL
MIC (S. aureus (MRSA); S. aureus (MRSA) 2293): > 16 µg/mL
MIC (S. aureus (MRSA); S. aureus (MRSA) 2294): > 16 µg/mL
MIC (S. aureus (MRSA); S. aureus (MRSA) 2295): > 16 µg/mL
MIC (S. aureus (MRSA); S. aureus (MRSA) 2296): 0.5 µg/mL (≈ 0.681 µM)
MIC (S. aureus (MRSA); S. aureus (MRSA) 2297): > 16 µg/mL
MIC (S. aureus (MRSA); S. aureus (MRSA) 3880): > 16 µg/mL
MIC (S. aureus (MRSA); S. aureus (MRSA) 5373): > 16 µg/mL
MIC (S. aureus (MRSA); S. aureus (MRSA) 5666): > 16 µg/mL
MIC (S. aureus (MRSA); S. aureus (MRSA) 5702): > 16 µg/mL
MIC (S. aureus (MRSA); S. aureus (MRSA) 5999): > 16 µg/mL
MIC (S. aureus (MRSA); S. aureus (MRSA) 6165): > 16 µg/mL
MIC (S. aureus (MRSA); S. aureus (MRSA) 6169): > 16 µg/mL
MIC (S. aureus (MRSA); S. aureus (MRSA) 6174): > 16 µg/mL
MIC (S. aureus (MRSA); S. aureus (MRSA) 6311): > 16 µg/mL
MIC (S. aureus (MRSA); S. aureus (MRSA) 6312): > 16 µg/mL
MIC (S. aureus (MRSA); S. aureus (MRSA) 6313): > 16 µg/mL
MIC (S. aureus (MRSA); S. aureus (MRSA) 6315): > 16 µg/mL
MIC (S. aureus (MRSA); S. aureus (MRSA) 6320): > 16 µg/mL
MIC (S. aureus (MRSA); S. aureus (MRSA) 6498): 0.5 µg/mL (≈ 0.681 µM)
MIC (S. aureus (MRSA); S. aureus (MRSA) 6501): > 16 µg/mL
MIC (S. aureus (MRSA); S. aureus (MRSA) 6505): > 16 µg/mL
MIC (S. aureus (MRSA); S. aureus (MRSA) 6506): 0.5 µg/mL (≈ 0.681 µM)
MIC (S. aureus (MRSA); S. aureus (MRSA) NRS382/2119): > 16 µg/mL
MIC (S. aureus (MRSA); S. aureus (MRSA) NRS383/2120): > 16 µg/mL
MIC (S. aureus (MRSA); S. aureus (MRSA) NRS384/2011): > 16 µg/mL
MIC (S. aureus (MSSA); S. aureus (MSSA) 2127): 0.12 µg/mL (≈ 0.164 µM)
MIC (S. aureus (MSSA); S. aureus (MSSA) 6167): > 16 µg/mL
MIC (S. aureus (MSSA); S. aureus (MSSA) 6168): 0.25 µg/mL (≈ 0.341 µM)
MIC (S. aureus (MSSA); S. aureus (MSSA) 6170): 0.5 µg/mL (≈ 0.681 µM)
MIC (S. aureus (MSSA); S. aureus (MSSA) 6316): > 16 µg/mL
MIC (S. aureus (MSSA); S. aureus (MSSA) 6317): 0.5 µg/mL (≈ 0.681 µM)
MIC (S. aureus (MSSA); S. aureus (MSSA) 6318): > 16 µg/mL
MIC (S. aureus (MSSA); S. aureus (MSSA) 6499): > 16 µg/mL
MIC (S. aureus (MSSA); S. aureus (MSSA) 6500): 8 µg/mL (≈ 10.9 µM)
MIC (S. aureus (MSSA); S. aureus (MSSA) 6502): 0.25 µg/mL (≈ 0.341 µM)
MIC (S. aureus (VISA); S. aureus (VISA) 1724): 0.25 µg/mL (≈ 0.341 µM)
MIC (S. aureus (VISA); S. aureus (VISA) 2012): > 16 µg/mL
MIC (S. aureus (VISA); S. aureus (VISA) 2013): > 16 µg/mL
MIC (S. aureus (VISA); S. aureus (VISA) 2014): > 16 µg/mL
MIC (S. aureus (VISA); S. aureus (VISA) 2015): > 16 µg/mL
MIC (S. aureus (VISA); S. aureus (VISA) 2016): > 16 µg/mL
MIC (S. aureus (VISA); S. aureus (VISA) 2017): 0.25 µg/mL (≈ 0.341 µM)
MIC (S. aureus (VISA); S. aureus (VISA) 2018): > 16 µg/mL
MIC (S. aureus (VISA); S. aureus (VISA) 2019): > 16 µg/mL
MIC (S. aureus (VISA); S. aureus (VISA) 2123): > 16 µg/mL
MIC (S. aureus (VISA); S. aureus (VISA) NRS1/1723): > 16 µg/mL
number of strains tested with MIC not ≤ 2 μg/mL [1]: 76
